The text below walks through data of US8088401B2, “Composite material comprising a porous semiconductor impregnated with an organic substance” (Psimedica Limited, priority 2003, dated 2012).

Counter-ions that a name gives are not always drawn.

Data set [1] in a line: Gravimetric loading of porous silicon p+ membrane with beneficial organic substance. Conditions: for pore volume available occupied by the drug, given as value/drug density / w/w loading (weight gain after drug loading and washing): mesoporous p+ silicon membrane, porosity 63%; for w/w loading (weight gain after drug loading and washing): melt, heated solution or rotary evaporation loading; for maximum w/w loading capacity: 63% porosity silicon matrix, from the density; for pore volume available occupied by the drug: liquid applied directly, 70° C. for 20 minutes. It is filed as physicochemical. As for the experimental part: The porous membranes were prepared and loaded with beneficial substance according to the following general method:—
A 3 inch diameter p+ wafer (5-15 milli ohm cm) was made mesoporous in a 50:50 by volume mixture of 40 wt % HF and ethanol by anodisation at 35 mA/cm^2 for 90 minutes. […] The membrane was then broken into flakes of weight in the range 10-60 mg for gravimetric and EDX studies of beneficial substance incorporation.
Loading was performed on two similar porous silicon (p+) membranes.
The pore volume available in the porous silicon membrane that can be occupied by the drug is calculated as follows: […]

The nature of data set [2]: HPLC analysis of drug extracted after incorporation into porous silicon. The format is physicochemical. The method, then:
Following incorporation into the membrane, chlorambucil was extracted and subjected to HPLC analysis. A known amount of the incorporated Chlorambucil/porous silicon (typically 10-15 mg, dependent on the level of incorporation) was placed into a volumetric flask and made up to a volume with 100 ml of ethanol, shaken and sonicated for 30 minutes at 30° C. From this stock solution 25 ml were transferred by pipette to a 100 ml volumetric flask to give the sample solution. Prior to analysis by HPLC the sample was filter through a 0.45 micron filter.
The chromatographic conditions used for this analysis were:—

The conditions of data set [3]: 55% porous silicon, thin oxidised layers; cited from earlier work.
For data set [4] the following is noted: aqueous environment; cited from earlier work.
Data set [5] can be described thus: Mortality and survival of tumour-bearing nude mice in the chlorambucil study. It is filed as in vivo. Conditions: for mortality rate: without porous silicon. The method, then:
The following protocol was adopted:— • 1. Culture of human cells and implantation of the tumour cells as solid tumours in nude mice: The carcinoma cell-line was cultured in RPMI and Ham's F-12 media respectively with 10% fetal calf serum in a CO2 incubator and subcultured every two to three days until growing to a number enough for implantation in animals. The cells were then implanted as solid tumors in nude mice]. The cells were collected in HBSS (balanced salt solution). One hundred microliters of cell suspension in HBSS (5×10^6 cells) was injected subcutaneously into right gluteal region of nude mice (female, 6 to 9 week old nude mice with average body weight of 25 g, housed in pathogen-free conditions) using a 25-gauge needle. • 2. Animals groups: Animals were randomly grouped into control 1 (injected with peanut oil), control 2 (injected with porous silicon without drug), free chlorambucil (drug injected without porous silicon directly into tumour or injected via intraperitoneal route) and chlorambucil impregnated porous silicon groups. Each group included 16 to 20 animals. • 3. Injection of chlorambucil impregnated porous silicon in transplanted tumours: On day 14 after implantation of tumours (diameter of the tumour about 1 cm), the chlorambucil impregnated formulation was applied to the centre of the tumours. • 4. Tumour volumetrics: The sizes of implanted tumours in nude mice was estimated every 3 days. The largest and smallest diameters were measured by a vernier caliper and tumour volumes estimated according the formula: V=1/2 ab^2, where a and b are largest and smallest tumour diameters respectively, and V is the tumour volume in cm^3.
The effects of intra-tumoural administered chlorambucil loaded porous silicon on the growth of the tumour was studied and compared with control and systemic therapy groups. The body weight of the animals was estimated by subtracting the tumour volume (cm3) from the total body weight (g) every 3 days. The survival time of each experimental animal was recorded.

Regarding `CN(C)CCC=C1c2ccccc2CCc2ccccc21` [Amitriptyline HCl], in data set [1], the “pore volume available occupied by the drug, given as value/drug density” value was 74.07 /drug density %; the “w/w loading (weight gain after drug loading and washing)” value was 35.07 % w/w.

In the case of `O=P1(N(CCCl)CCCl)NCCCO1` (centres unmarked) [Cyclophosohamide], in data set [1], the “pore volume available occupied by the drug, given as value/drug density” value is recorded as 104 /drug density %; the “w/w loading (weight gain after drug loading and washing)” value was found to be 44.4 % w/w.

`CCCCCCCCCCCC(=O)O` [Lauric Acid]: in data set [1], the “pore volume available occupied by the drug, given as value/drug density” value is recorded as 55.62 /drug density %; the “w/w loading (weight gain after drug loading and washing)” value is reported as 42.57 % w/w.

In the case of `CC(=O)O[C@H]1C(=O)[C@@]2(C)[C@H]([C@H](OC(=O)c3ccccc3)[C@]3(O)C[C@H](OC(=O)[C@H](O)[C@@H](NC(=O)c4ccccc4)c4ccccc4)C(C)=C1C3(C)C)[C@]1(OC(C)=O)CO[C@@H]1C[C@@H]2O` [Paclitaxel], the “w/w loading (weight gain after drug loading and washing)” value in data set [1] is listed as 16.71 % w/w. In addition, in data set [2], the “degradation after incorporation into and release from porous silicon (HPLC)” value is “without significant degradation”.

`CC(=O)O[C@]1(C(C)=O)CC[C@H]2[C@@H]3C[C@H](C)C4=CC(=O)CC[C@]4(C)[C@H]3CC[C@@]21C` [Medroxyprogesteron Acetate]: the “w/w loading (weight gain after drug loading and washing)” value in data set [1] is 19.81 % w/w.

Regarding `CC1=CC(=O)c2c(O)cccc2C1=O` [Plumbagin], in data set [1], the “pore volume available occupied by the drug, given as value/drug density” value is 98.50 /drug density %; the “w/w loading (weight gain after drug loading and washing)” value worked out at 34.68 % w/w.

For Vitamin K, in data set [1], the “maximum w/w loading capacity” value is on record as 42%; the “pore volume available occupied by the drug” value was 80%; the “w/w loading (weight gain after drug loading and washing)” value came out at 36 % w/w.

In data set [1] (EtOH:dH2O 1:1 solution, 110° C., 25 minutes), `CCN(CC)CCOC(=O)c1ccc(N)cc1` [Procaine] showed a loading w/v of 71.38 % w/v. Besides, the “w/w loading (weight gain after drug loading and washing)” value in data set [1] was 35.33 % w/w.

`CS(=O)(=O)OCCCCOS(C)(=O)=O` [Busulfan]: in data set [1], the “pore volume available occupied by the drug, given as value/drug density” value is given as 78.53 /drug density %; the “w/w loading (weight gain after drug loading and washing)” value is 37.54 % w/w.

With albumin, the volume percentage adsorbed in data set [3] is 10.7%.

In the case of `O=C(O)CCCc1ccc(N(CCCl)CCCl)cc1` [Chlorambucil], the “pore volume available occupied by the drug, given as value/drug density” value in data set [1] is reported as 88.40 /drug density %. Moreover, the “w/w loading (weight gain after drug loading and washing)” value in data set [1] worked out at 39.19 % w/w. For the same molecule, the “apparent activation energy for thermal degradation (Ea)” value in data set [4] was 24.4 kcal/mol. Further, the mortality rate in data set [5] (720 ug) is recorded as 50%; in data set [5] (1500 ug (2×LD50), intratumour) it was 90%. The LD50 in data set [5] (nude mice, dose per animal) was 720 µg. Also, the “degradation after incorporation into and release from porous silicon (HPLC)” value in data set [2] is “without significant degradation”.

For `Cc1c(C)c2c(c(C)c1O)CC[C@@](C)(CCC[C@H](C)CCC[C@H](C)CCCC(C)C)O2` [Vitamin E, α-tocopherol], in data set [1], the “maximum w/w loading capacity” value came to 41%; the “pore volume available occupied by the drug” value was 88%; the “w/w loading (weight gain after drug loading and washing)” value is listed as 37 % w/w.

In the case of `c1ccc([C@H]2CN3CCSC3=N2)cc1` [Levamisole HCl], in data set [1], the “pore volume available occupied by the drug, given as value/drug density” value is 64 /drug density %; the “w/w loading (weight gain after drug loading and washing)” value worked out at 32.93 % w/w.

For `CC(C)Cc1ccc(C(C)C(=O)O)cc1` (stereo not drawn) [S-(+)-Ibuprofen], the “w/w loading (weight gain after drug loading and washing)” value in data set [1] was 40.67 % w/w.
